Assay [1] deals with T1, Drosophila IntS4-IntS9-IntS11 complex (Drosophila ICM, Integrator cleavage module) (Drosophila melanogaster, UniProt Q95TS5+Q9VAH9+Q9W3E1, Q9VAH9:K462E).
T1 construct: IntS4 (N-terminal 6xHis), IntS9 and IntS11 co-expressed in Tni insect cells; IP6 co-purified from the host; free IntS9 N-terminus contacts IP6
Briefly: LC-MS/MS of co-purified ligand. As to conditions: ligand co-purified from insect cells, none added; site mutant, gel filtration profile comparable to wild type. It is filed as binding. (SEC sorts molecules by how far they enter the pores of the column.)

In assay [2] the target is T2, Drosophila IntS4-IntS9-IntS11 complex (Drosophila ICM, Integrator cleavage module) (Drosophila melanogaster, UniProt Q95TS5+Q9VAH9+Q9W3E1).
T2 construct: IntS4 (N-terminal 6xHis), IntS9 and IntS11 co-expressed in Tni insect cells; IP6 co-purified from the host; free IntS9 N-terminus contacts IP6
The assay can be described thus: cryo-EM structure ([…] Å); LC-MS/MS of co-purified ligand. As to conditions: ligand co-purified from insect cells, none added; site at interface of IntS4, IntS9 and IntS11, 55 Å from the IntS11 active site. It is filed as binding.

Assay [3] has as its target T3, human INTS4-INTS9-INTS11 complex (human ICM) (Homo sapiens, UniProt Q5TA45+Q96HW7+Q9NV88).
T3 construct: three-subunit complex purified from insect cell expression
The assay can be described thus: LC-MS/MS of co-purified ligand; IP6 also fitted into published human ICM map (EMDB […]). It is filed as binding. As to conditions: ligand co-purified from insect cells, none added.

Assay [4] deals with T4, human INTS4-INTS9-INTS11 complex (human ICM) (Homo sapiens, UniProt Q5TA45+Q96HW7+Q9NV88, Q5TA45:K462E).
T4 construct: three-subunit complex purified from insect cell expression
Briefly: LC-MS/MS of co-purified ligand. It is filed as binding. The conditions noted are these: ligand co-purified from insect cells, none added; site mutant, gel filtration profile comparable to wild type.

In assay [5] the target is T5, human INTS4-INTS9-INTS11 complex (human ICM) (Homo sapiens, UniProt Q5TA45+Q96HW7+Q9NV88, Q9NV88:K510E/Q9NV88:R511E).
T5 construct: three-subunit complex purified from insect cell expression
The assay can be described thus: LC-MS/MS of co-purified ligand. It is filed as binding. The conditions noted are these: ligand co-purified from insect cells, none added; site mutant, gel filtration profile comparable to wild type.

For assay [6], the target named is T6, Drosophila IntS9, subunit of the Integrator cleavage module (Drosophila (D. melanogaster), UniProt Q95TS5 1-654).
T6 construct: Integrator complex subunit 9 (IntS9), Drosophila; Cloned into the pFL acceptor vector together with IntS11; no tag is stated; also called Integrator subunit 9
T6 sequence: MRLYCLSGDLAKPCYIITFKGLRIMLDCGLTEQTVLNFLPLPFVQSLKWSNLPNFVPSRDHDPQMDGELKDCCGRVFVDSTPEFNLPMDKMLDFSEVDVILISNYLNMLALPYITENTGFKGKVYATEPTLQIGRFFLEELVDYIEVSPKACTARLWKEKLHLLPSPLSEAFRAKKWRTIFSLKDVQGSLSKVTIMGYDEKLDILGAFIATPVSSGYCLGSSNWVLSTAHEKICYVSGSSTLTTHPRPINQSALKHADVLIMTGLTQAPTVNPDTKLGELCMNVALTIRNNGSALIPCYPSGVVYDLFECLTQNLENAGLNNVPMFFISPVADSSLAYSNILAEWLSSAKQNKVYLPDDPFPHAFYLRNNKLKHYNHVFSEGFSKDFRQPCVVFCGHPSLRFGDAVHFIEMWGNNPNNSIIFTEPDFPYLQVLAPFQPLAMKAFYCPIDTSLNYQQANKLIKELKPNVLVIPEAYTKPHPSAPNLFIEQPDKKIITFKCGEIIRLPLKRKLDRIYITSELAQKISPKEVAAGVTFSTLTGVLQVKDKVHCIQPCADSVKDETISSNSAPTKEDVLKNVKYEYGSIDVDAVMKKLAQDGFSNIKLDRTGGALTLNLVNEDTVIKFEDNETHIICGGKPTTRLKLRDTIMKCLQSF
Briefly: SEC; gel filtration (Hiload 16/60 Superdex 200) of wild-type and K462E mutant Drosophila ICM co-expressed in insect cells, after nickel affinity; SDS gel of the complex. The conditions noted are these: both partners purified.

Assay [7] has as its target T7, Drosophila IntS4 (N-terminal 6xHis-tagged), subunit of the Integrator cleavage module (Drosophila (D. melanogaster), UniProt Q9W3E1 1-1022).
T7 construct: Integrator complex subunit 4 (IntS4), Drosophila; Residues beyond 570 (CTD) were not modelled in the structure; also called Integrator subunit 4
T7 sequence: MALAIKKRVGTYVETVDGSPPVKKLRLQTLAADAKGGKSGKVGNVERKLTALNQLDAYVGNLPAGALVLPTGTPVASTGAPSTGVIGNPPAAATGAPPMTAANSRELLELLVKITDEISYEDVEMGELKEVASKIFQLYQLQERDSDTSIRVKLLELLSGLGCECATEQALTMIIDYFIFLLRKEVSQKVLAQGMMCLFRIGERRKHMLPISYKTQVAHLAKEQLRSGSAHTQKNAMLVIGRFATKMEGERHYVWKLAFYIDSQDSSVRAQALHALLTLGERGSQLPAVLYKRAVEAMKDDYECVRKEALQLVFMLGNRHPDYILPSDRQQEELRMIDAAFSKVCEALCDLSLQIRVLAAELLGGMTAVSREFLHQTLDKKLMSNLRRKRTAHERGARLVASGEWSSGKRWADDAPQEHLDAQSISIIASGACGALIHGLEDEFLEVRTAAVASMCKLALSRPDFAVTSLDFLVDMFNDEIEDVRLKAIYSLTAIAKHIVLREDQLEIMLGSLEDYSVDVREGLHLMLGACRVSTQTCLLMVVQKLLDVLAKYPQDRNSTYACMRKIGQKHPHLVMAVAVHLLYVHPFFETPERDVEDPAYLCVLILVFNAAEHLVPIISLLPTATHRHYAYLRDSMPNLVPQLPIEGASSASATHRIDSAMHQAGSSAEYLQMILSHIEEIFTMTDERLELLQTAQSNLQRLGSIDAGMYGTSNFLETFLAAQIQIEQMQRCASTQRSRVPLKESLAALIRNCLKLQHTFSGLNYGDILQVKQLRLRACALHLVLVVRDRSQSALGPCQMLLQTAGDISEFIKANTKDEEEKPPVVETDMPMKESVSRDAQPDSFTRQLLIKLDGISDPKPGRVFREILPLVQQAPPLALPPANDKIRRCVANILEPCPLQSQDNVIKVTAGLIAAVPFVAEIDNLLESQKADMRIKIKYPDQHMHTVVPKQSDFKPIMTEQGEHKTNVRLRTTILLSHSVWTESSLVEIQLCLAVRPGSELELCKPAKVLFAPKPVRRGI
The description is as above. As to conditions: both partners purified.

T4 sequence (Q96HW7 whole entry): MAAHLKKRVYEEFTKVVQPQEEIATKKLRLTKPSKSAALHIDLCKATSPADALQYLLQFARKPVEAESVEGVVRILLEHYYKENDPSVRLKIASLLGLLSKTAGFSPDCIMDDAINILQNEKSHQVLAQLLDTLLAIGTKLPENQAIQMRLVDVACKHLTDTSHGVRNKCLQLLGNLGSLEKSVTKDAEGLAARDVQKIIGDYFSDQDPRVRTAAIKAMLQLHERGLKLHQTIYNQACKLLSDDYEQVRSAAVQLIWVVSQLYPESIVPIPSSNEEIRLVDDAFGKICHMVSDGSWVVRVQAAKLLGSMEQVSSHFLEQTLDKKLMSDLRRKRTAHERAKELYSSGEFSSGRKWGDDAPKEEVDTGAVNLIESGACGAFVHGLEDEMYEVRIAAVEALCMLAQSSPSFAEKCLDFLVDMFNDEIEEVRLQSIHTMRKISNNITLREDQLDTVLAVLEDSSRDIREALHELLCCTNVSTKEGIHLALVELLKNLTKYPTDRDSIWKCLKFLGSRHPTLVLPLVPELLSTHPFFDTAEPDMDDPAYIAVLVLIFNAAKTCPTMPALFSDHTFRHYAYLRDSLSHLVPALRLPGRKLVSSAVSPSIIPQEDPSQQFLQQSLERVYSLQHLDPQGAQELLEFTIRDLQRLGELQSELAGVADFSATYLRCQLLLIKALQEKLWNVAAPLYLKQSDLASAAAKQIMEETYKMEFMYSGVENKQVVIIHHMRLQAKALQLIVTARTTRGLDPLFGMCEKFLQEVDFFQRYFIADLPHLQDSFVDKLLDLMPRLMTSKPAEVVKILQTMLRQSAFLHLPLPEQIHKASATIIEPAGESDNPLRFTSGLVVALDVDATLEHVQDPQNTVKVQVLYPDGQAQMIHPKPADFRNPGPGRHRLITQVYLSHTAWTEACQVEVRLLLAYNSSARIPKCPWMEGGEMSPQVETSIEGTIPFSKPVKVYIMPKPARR
T4 sequence (Q9NV88 whole entry): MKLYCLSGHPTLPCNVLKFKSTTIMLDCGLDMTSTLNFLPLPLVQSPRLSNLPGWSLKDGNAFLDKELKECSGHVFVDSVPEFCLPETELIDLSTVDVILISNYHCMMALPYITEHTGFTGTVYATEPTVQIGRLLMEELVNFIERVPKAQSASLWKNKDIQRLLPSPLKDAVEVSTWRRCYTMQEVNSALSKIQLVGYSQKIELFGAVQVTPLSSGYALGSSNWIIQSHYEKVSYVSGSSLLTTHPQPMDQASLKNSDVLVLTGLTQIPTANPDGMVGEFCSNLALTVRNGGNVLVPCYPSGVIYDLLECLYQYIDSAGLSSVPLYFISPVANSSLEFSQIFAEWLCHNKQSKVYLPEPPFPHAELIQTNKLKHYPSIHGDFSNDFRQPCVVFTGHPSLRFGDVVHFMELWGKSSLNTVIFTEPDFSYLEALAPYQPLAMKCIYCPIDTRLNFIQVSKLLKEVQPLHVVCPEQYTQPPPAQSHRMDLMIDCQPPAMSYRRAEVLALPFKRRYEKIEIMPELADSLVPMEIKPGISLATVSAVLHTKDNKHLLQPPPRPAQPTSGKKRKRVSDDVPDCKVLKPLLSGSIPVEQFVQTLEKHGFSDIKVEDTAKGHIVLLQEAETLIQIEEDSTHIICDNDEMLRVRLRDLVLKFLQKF
T4 sequence (Q5TA45 whole entry K462E): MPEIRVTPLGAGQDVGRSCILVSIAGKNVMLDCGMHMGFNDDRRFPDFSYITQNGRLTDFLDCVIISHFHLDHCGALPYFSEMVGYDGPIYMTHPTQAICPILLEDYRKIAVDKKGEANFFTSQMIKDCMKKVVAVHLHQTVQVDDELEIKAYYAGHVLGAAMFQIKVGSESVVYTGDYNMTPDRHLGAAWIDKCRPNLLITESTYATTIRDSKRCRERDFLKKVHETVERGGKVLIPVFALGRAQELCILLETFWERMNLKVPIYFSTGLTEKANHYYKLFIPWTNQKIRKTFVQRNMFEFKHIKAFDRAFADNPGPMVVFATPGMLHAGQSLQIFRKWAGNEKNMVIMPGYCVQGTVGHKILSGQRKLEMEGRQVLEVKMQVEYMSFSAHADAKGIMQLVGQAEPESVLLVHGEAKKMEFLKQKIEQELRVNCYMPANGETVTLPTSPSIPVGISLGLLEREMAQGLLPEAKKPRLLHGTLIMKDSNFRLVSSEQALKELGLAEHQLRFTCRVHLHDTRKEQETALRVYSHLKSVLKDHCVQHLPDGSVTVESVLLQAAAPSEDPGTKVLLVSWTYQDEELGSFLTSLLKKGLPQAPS
T5 sequence (Q96HW7 whole entry): as the sequence (Q96HW7 whole entry) above
T5 sequence (Q9NV88 whole entry K510E/R511E): as the sequence (Q9NV88 whole entry) above, with K510E, R511E counted along it
T5 sequence (Q5TA45 whole entry): as the sequence (Q5TA45 whole entry K462E) above, with E462K counted along it
T3 sequence (Q96HW7 whole entry): as the sequence (Q96HW7 whole entry) above
T3 sequence (Q9NV88 whole entry): as the sequence (Q9NV88 whole entry) above
T3 sequence (Q5TA45 whole entry): as the sequence (Q5TA45 whole entry K462E) above, with E462K counted along it
T2 sequence (Q9VAH9 whole entry, one chain of several): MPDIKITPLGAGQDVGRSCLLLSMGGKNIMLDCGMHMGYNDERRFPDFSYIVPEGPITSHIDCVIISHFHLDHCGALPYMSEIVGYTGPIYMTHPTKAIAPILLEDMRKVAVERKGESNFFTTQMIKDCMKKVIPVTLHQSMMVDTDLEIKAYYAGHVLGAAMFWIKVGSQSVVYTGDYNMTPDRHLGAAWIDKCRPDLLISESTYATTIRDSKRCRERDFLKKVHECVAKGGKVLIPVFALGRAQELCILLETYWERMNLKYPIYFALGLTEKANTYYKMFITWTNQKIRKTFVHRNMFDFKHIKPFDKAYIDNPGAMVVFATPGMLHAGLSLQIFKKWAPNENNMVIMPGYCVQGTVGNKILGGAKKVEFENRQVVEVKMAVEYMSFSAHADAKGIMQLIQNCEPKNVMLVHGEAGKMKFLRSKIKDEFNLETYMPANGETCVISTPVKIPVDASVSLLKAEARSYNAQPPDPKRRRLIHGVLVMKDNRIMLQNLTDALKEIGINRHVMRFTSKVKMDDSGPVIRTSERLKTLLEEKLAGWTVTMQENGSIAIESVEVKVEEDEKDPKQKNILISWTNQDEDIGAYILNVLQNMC

For `O=P(O)(O)O[C@H]1[C@H](OP(=O)(O)O)[C@@H](OP(=O)(O)O)[C@H](OP(=O)(O)O)[C@@H](OP(=O)(O)O)[C@H]1OP(=O)(O)O` [inositol hexakisphosphate], the IP6 detection result in assay [1] was “we failed to detect IP6 in our mass spectrometry experiments on them”; in assay [4] it was “we failed to detect IP6 in our mass spectrometry experiments on them”; in assay [5] it was “human ICM sample containing the K510E/R511E double mutation in IntS9”. Further, in assay [2], the “cryo-EM structure (2.74 Å); LC-MS/MS of co-purified ligand” value is recorded as “The structure of Drosophila ICM unexpectedly revealed the presence of an inositol hexakisphosphate (IP6) molecule”. In addition, in assay [3], the “LC-MS/MS of co-purified ligand; IP6 also fitted into published human ICM map (EM)” value is “confirm by mass spectrometry the binding of IP6 to wild-type human or Drosophila ICM samples”.

B1: Drosophila IntS11 K462E (in the K462E mutant Drosophila ICM) (enzyme, Drosophila (D. melanogaster))
chain: MPDIKITPLGAGQDVGRSCLLLSMGGKNIMLDCGMHMGYNDERRFPDFSYIVPEGPITSHIDCVIISHFHLDHCGALPYMSEIVGYTGPIYMTHPTKAIAPILLEDMRKVAVERKGESNFFTTQMIKDCMKKVIPVTLHQSMMVDTDLEIKAYYAGHVLGAAMFWIKVGSQSVVYTGDYNMTPDRHLGAAWIDKCRPDLLISESTYATTIRDSKRCRERDFLKKVHECVAKGGKVLIPVFALGRAQELCILLETYWERMNLKYPIYFALGLTEKANTYYKMFITWTNQKIRKTFVHRNMFDFKHIKPFDKAYIDNPGAMVVFATPGMLHAGLSLQIFKKWAPNENNMVIMPGYCVQGTVGNKILGGAKKVEFENRQVVEVKMAVEYMSFSAHADAKGIMQLIQNCEPKNVMLVHGEAGKMKFLRSKIKDEFNLETYMPANGETCVISTPVKIPVDASVSLLEAEARSYNAQPPDPKRRRLIHGVLVMKDNRIMLQNLTDALKEIGINRHVMRFTSKVKMDDSGPVIRTSERLKTLLEEKLAGWTVTMQENGSIAIESVEVKVEEDEKDPKQKNILISWTNQDEDIGAYILNVLQNMC
notes: Integrator complex subunit 11 (IntS11), Drosophila, with K462E; also called K462E mutant of Drosophila ICM; source: insect cells, purified as ICM sample
On to B1, for which the binding result in assay [6] and in assay [7] was “binds” each time.

Source of the values: PMC9525679, “Inositol hexakisphosphate is required for Integrator function” (Nature Communications, 2022).
